{"source": "paper PMC11078990", "about": "“Identification and characterization of small molecule inhibitors of the LINE-1 retrotransposon endonuclease” (Nature Communications, 2024)", "key": {"[1]": {"system": "senescent LF1 human diploid fibroblasts (IFN-I and Aging gene sets)", "test": "RNA-seq / Gene Set Enrichment Analysis of senescent cultures", "format": "cell-based", "settings": "senescent cultures treated 1 month beginning at 3 months senescence"}, "L1 retrotransposition": {"system": "L1 retrotransposition", "test": "HeLa dual-luciferase L1 retrotransposition assay", "format": "cell-based, human"}, "[2]": {"system": "senescent LF1 human diploid fibroblasts (IL6, IL1β, CCL2, IFNα, MMP3)", "test": "RT-qPCR of inflammatory markers in replicatively senescent fibroblasts", "format": "cell-based", "settings": "10 μM, senescent cells, 3 replicates"}, "[3]": {"biological_target": "L1 EN (LINE-1 retrotransposon endonuclease domain) (Homo sapiens, UniProt O00370, N5T)", "sequence (O00370 1-239 N5T)": "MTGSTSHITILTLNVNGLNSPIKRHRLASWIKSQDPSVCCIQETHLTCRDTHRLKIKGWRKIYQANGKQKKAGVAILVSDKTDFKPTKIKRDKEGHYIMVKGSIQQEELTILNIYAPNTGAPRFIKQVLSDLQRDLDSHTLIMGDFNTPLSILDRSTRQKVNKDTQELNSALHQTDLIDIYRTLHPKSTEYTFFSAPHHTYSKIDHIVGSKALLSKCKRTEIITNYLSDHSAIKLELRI", "test": "Fluorescent oligonucleotide EN nicking activity assay", "format": "biochemical"}, "[4]": {"system": "DNA fragmentation (comet tail length) in HeLa Tet-On cells expressing EN domain", "test": "Neutral comet assay, EN domain-only constructs", "format": "cell-based, human"}, "HeLa Tet-On cells": {"system": "HeLa Tet-On cells", "settings": "human"}, "APE1": {"biological_target": "T1, APE1 (Homo sapiens, UniProt P27695)", "T1 construct": "purchased New England Biolabs (NEB) M0282S", "test": "APE1 fluorescent oligonucleotide activity assay (abasic site substrate)", "format": "biochemical"}, "[5]": {"system": "substrate oligonucleotide used in the EN activity assay", "format": "binding", "design": "key to Binding Detected? (Y/N): Binding Detected? (Y/N); Binding Detected? (Y/N)"}, "[6]": {"settings": "read-out: EN activity, percent of no inhibitor control"}}, "note": "“And” between values parts separate entries of the source, which are not always exact repeats. Equal values may be shown once. Read-outs that look alike come from different tables or passages of the source.", "data": [{"smiles": "Nc1ccn([C@@H]2CS[C@H](CO)O2)c(=O)n1", "note": "[3TC, Lamivudine, reference compound]", "values": [{"measurement": "Expression of IFN-I gene set and aging gene set (RNA-seq, GSEA)", "setting": "[1]", "result": "decreased expression"}, {"measurement": "Luciferase (retrotransposition), average", "setting": "L1 retrotransposition; Figure 4a Graph 1, 10 μM, 0 μM average 9.554", "result": 1.753}, {"measurement": "Luciferase (retrotransposition), replicates", "setting": "L1 retrotransposition; Figure 4a Graph 1, 10 μM, Replicates 1-4, 0 μM average 9.554", "result": "1.525 and 1.282 and 1.336 and 2.868"}, {"measurement": "Luciferase (retrotransposition), average", "setting": "L1 retrotransposition; Figure 4a Graph 2, 10 μM, 0 μM average 9.679", "result": 1.648}, {"measurement": "Luciferase (retrotransposition), replicates", "setting": "L1 retrotransposition; Figure 4a Graph 2, 10 μM, Replicates 1-4, 0 μM average 9.679", "result": "2.547 and 1.556 and 1.337 and 1.153"}, {"measurement": "Luciferase (retrotransposition), average", "setting": "L1 retrotransposition; Figure 4a Graph 3, 10μM, 0μM average 17.91", "result": 3.723}, {"measurement": "Luciferase (retrotransposition), replicates", "setting": "L1 retrotransposition; Figure 4a Graph 3, 10μM, Replicates 1-4, 0μM average 17.91", "result": "3.272 and 3.5538 and 3.891 and 4.176"}, {"measurement": "Luciferase (retrotransposition), average", "setting": "L1 retrotransposition; Figure 4a Graph 4, 10μM, 0μM average 3.426", "result": 0.6208}, {"measurement": "Luciferase (retrotransposition), replicates", "setting": "L1 retrotransposition; Figure 4a Graph 4, 10μM, Replicates 1-4, 0μM average 3.426", "result": "0.3413 and 0.6639 and 1.079 and 0.3984"}, {"measurement": "Luciferase (retrotransposition), average", "setting": "L1 retrotransposition; Figure 4a Graph 5, 10μM, 0μM average 4.537", "result": 0.4847}, {"measurement": "Luciferase (retrotransposition), replicates", "setting": "L1 retrotransposition; Figure 4a Graph 5, 10μM, Replicates 1-4, 0μM average 4.537", "result": "0.5984 and 0.4472 and 0.3986 and 0.4945"}, {"measurement": "MMP3 RT-qPCR, average (EP = 1)", "setting": "[2]; SEN control 5.499", "result": 1.892}, {"measurement": "IL1β RT-qPCR, average (EP = 1)", "setting": "[2]; SEN control 8.256", "result": 10.61}, {"measurement": "CCL2 RT-qPCR, average (EP = 1)", "setting": "[2]; SEN control 8.589", "result": 4.199}, {"measurement": "IFNα RT-qPCR, average (EP = 1)", "setting": "[2]; SEN control 18.65", "result": 15.66}, {"measurement": "IL6 RT-qPCR, average (EP = 1)", "setting": "[2]; SEN control 22.45", "result": 13.65}]}, {"smiles": "C/C(=N\\Nc1ccc([N+](=O)[O-])cc1[N+](=O)[O-])c1ccc(-n2nncc2C(C)(C)C)cc1", "note": "[AD7]", "values": [{"measurement": "EN activity, percent of no inhibitor control", "setting": "[3]; 5 µM", "result": "101.994% and 98.1742% and 77.1828%"}, {"measurement": "EN activity, percent of no inhibitor control", "setting": "[3]; 25 µM", "result": "96.2152% and 94.2464%"}, {"measurement": "EN activity, percent of no inhibitor control", "setting": "[3]; 50 µM", "result": "105.792% and 87.7855%"}, {"measurement": "EN activity, percent of no inhibitor control", "setting": "[3]; 100 µM", "result": "94.7448% and 86.2812%"}, {"measurement": "EN activity, percent of no inhibitor control", "setting": "[3]; 250 µM", "result": "48.1744% and 80.4178% and 71.8348%"}, {"measurement": "EN activity, percent of no inhibitor control", "setting": "[3]; 500 µM", "result": 47.3691, "unit": "%"}, {"measurement": "EN activity, percent of no inhibitor control", "setting": "[3]; 750 µM", "result": "44.5063% and 42.7569%"}, {"measurement": "EN activity, percent of no inhibitor control", "setting": "[3]; 1000 µM", "result": "33.3657% and 34.4723%"}, {"measurement": "EN activity, percent of no inhibitor control", "setting": "[3]; 1500 µM", "result": "8.772% and 6.335%"}, {"measurement": "remaining activity at 25 µM", "setting": "[3]; [6]", "result": 86.8, "unit": "%"}, {"measurement": "remaining activity at 50 µM", "setting": "[3]; [6]", "result": 88.2, "unit": "%"}, {"measurement": "remaining activity at 100 µM", "setting": "[3]; [6]", "result": 97.9, "unit": "%"}, {"measurement": "remaining activity at 500 µM", "setting": "[3]; [6]", "result": 61.3, "unit": "%"}, {"measurement": "remaining activity at 750 µM", "setting": "[3]; [6]", "result": 34.4, "unit": "%"}, {"measurement": "remaining activity at 1000 µM", "setting": "[3]; [6]", "result": 39.3, "unit": "%"}, {"measurement": "remaining activity at 1500 µM", "setting": "[3]; [6]", "result": 7.91, "unit": "%"}, {"measurement": "Nuclei comet tail length, average (WT = 1)", "setting": "[4]", "result": 0.8142}, {"measurement": "PrestoBlue (viability), average", "setting": "HeLa Tet-On cells", "result": 16.01}, {"measurement": "APE1 percent activity, Replicate 1", "setting": "APE1", "result": 123.061, "unit": "%"}, {"measurement": "APE1 percent activity, Replicate 2", "setting": "APE1", "result": 113.794, "unit": "%"}, {"measurement": "APE1 percent activity, Replicate 3", "setting": "APE1", "result": 119.588, "unit": "%"}, {"measurement": "APE1 percent activity, average", "setting": "APE1", "result": 118.815, "unit": "%"}, {"measurement": "Percent APE1 activity, average", "setting": "APE1", "result": 103.1, "unit": "%"}, {"measurement": "Percent APE1 activity, replicates", "setting": "APE1", "result": "105.066% and 99.3868% and 104.87%"}, {"measurement": "activity at 25 µM", "setting": "APE1; read-out: APE1 activity (%)", "result": "119 ± 4.7", "unit": "%"}, {"measurement": "Effect on L1 retrotransposition", "setting": "L1 retrotransposition", "result": "some activity in the retrotransposition assay"}, {"measurement": "Luciferase (retrotransposition), average", "setting": "L1 retrotransposition", "result": 2.314}, {"measurement": "Luciferase (retrotransposition), replicates", "setting": "L1 retrotransposition", "result": "2.087 and 1.842 and 2.6465 and 2.682"}, {"measurement": "Binding Detected? (Y/N)", "setting": "[5]", "result": "N"}]}]}
